Measurements from publication PMC6675714 (Cancer Medicine, 2019).
Values joined by “and” are separate entries in the source; they are usually repeats but may differ in a detail not shown here. Equal entries are not always repeated. “Also recorded” adds a separate entry of the source.

How the values were obtained:
xenograft Caki‐1 tumors = assay: Xenograft renal cancer intervention (efficacy) trial; format: in vivo, NOD.CB17‐Prkdc SCID/J mice; details: 10 mg/kg/72h ip
Source text: Tissue samples were processed as described above and analyzed for Ru and Au content using ICP‐MS
Percent of change in tumor burden in a cohort of 3 females and 3 males NOD.CB17‐Prkdc scid/J mice inoculated subcutaneously with 5 × 10^6 Caki‐1 cells. The treatment started when tumors were palpable (~5 mm diameter). […] (A) Representative histological samples of tumors resected from each treatment group.

[1] = Plasma pharmacokinetics after single ip injection (Ru by ICP‐MS); format: in vivo
Experimental: Blood was collected from submandibular vein using a heparin coated glass capillary into heparinized blood collection tubes on ice at time intervals of 1, 2, 6, 12, 24, 48, and 72 hours post injection. Plasma was harvested by centrifuging blood samples at 2800 rpm for 15 minutes at 4°C and stored frozen at − 80°C until analysis. Similarly, kidney, liver, and tumor were harvested after final time point, weighed, and stored into glass vials. One mL of deionized water was added to each tissue sample, subjected to ultrasonic homogenization at 15 W power for 1 minute, followed by lyophilization.
Plasma and tissue concentrations of Ru and Au were measured using inductively coupled plasma–mass spectrometry (ICP‐MS). Plasma (10 μL) or tissue samples were transferred into glass vials, and 1 mL of a 75:25 mixture of nitric acid (16 N) and hydrochloric acid (12 N) was added to each vial. The mixture was then heated at 90°C for 5 hours. After cooling to room temperature, the samples were centrifuged to remove debris if any. All samples were then mixed with 40 ppb of indium internal standard and analyzed using a Thermo Scientific XSERIES 2 ICP‐MS coupled with ESI PC3 Peltier cooled spray chamber, SC‐FAST injection loop, and SC‐4 autosampler. All the elements were measured using He/H2 collision‐reaction mode.
Pharmacokinetic parameters were obtained from the plasma concentration–time profiles by noncompartmental analysis using Phoenix WinNonlin 6.4 version 6.4 (Pharsight Corporation, Mountain View, CA). The pharmacokinetic parameters quantified were the maximum plasma drug concentration (Cmax), the time to reach Cmax (Tmax), the area under the plasma concentration–time curve from 0 hour to last measurable concentration (AUClast), elimination rate constant (ke), plasma half‐life (t1/2), apparent total clearance of the drug from plasma (Cl/F), and apparent volume of distribution (Vd/F). Concentrations of ruthenium and gold in liver, kidney, and tumors were also determined.

[2] = Body and organ weights at necropsy after the trial; format: in vivo, NOD.CB17‐Prkdc scid/J mice
[3] = Histopathology of organs and tissues after the trial; format: in vivo, NOD.CB17‐Prkdc scid/J mice; design: key to Histopathological finding: Lungs / Histopathological finding: Thymus / Histopathological finding: Kidneys / Histopathological finding: Gallbladder / Histopathological finding: Stomach / Histopathological finding: Cecum / Histopathological finding: Colon / Histopathological finding: Mesenteric lymph node / Histopathological finding: Salivary glands / Histopathological finding: Submandibular lymph node / Histopathological finding: Uterus / Histopathological finding: Cervix / Histopathological finding: Vagina / Histopathological finding: Testes/epididymis / Histopathological finding: Prostate / Histopathological finding: Seminal vesicles / Histopathological finding: Urinary bladder / Histopathological finding: Adrenals / Histopathological finding: Ovaries / Histopathological finding: Oviducts / Histopathological finding: Trachea / Histopathological finding: Esophagus / Histopathological finding: Thyroid / Histopathological finding: Parathyroid / Histopathological finding: Mammary glands / Histopathological finding: Bones (femur, tibia, sternum, vertebrae) / Histopathological finding: Stifle joint / Histopathological finding: Skeletral muscles (hind limb, spine) / Histopathological finding: Nerves (hind limb, spine) / Histopathological finding: Spinal cord / Histopathological finding: Oral cavity / Histopathological finding: Teeth / Histopathological finding: Nasal cavity / Histopathological finding: Eyes / Histopathological finding: Harderian gland / Histopathological finding: Bones (skull) / Histopathological finding: Pituitary / Histopathological finding: Brain / Histopathological finding: Ears / Histopathological finding: Heart: N: Normal
Source text: At the end of the intervention trial, female and male NOD.CB17‐Prkdc scid/J mice bearing subcutaneous Caki‐1 tumors were euthanized, blood was collected by intracardiac puncture and the carcasses were perfused with 4% PFA. Lung, kidney, heart, spleen, lymphatic tissue were collected, mounted in paraffin, sectioned and stained by Hemotoxilyn & Eosin. Samples were imaged at 20× under light microscope for analysis.

[4] = 21 day course once/72h, mean and SEM, n = 3
[5] = Supplementary Table 3, end of trial

For “[Cl2(p‐cymene)Ru(μ‐dppm)Au(IMes)]ClO4 [RANCE‐1]”, the “Weight and well‐being during the trial” value (xenograft Caki‐1 tumors; 21 days) was “no significant change in weight or any decline in the well‐being”, the “Tumor burden after treatment” value (xenograft Caki‐1 tumors; 21 days of treatment, total of 7 doses) was “no change in tumor burden” and the “Time to reach steady state” value ([1]; 10 mg/kg ip) was 203.8 ± 93.4 h. The “AUC0‐72h” value ([1]; 10 mg/kg single ip, plasma) was 792.9 ± 270.3 µg·h/mL, the Cl/F ([1]; 10 mg/kg single ip, plasma) was 0.1667 ± 0.0525 mL/min/kg and the Cmax ([1]; 10 mg/kg single ip, plasma) was 22600 ± 2580 ng/mL. The Vd/F ([1]; 10 mg/kg single ip, plasma) was 0.6121 ± 0.429 L/kg, the t1/2 ([1]; 10 mg/kg single ip, plasma) was 40.8 h and 40 h and 40.77 ± 18.67 h and the Tmax ([1]; 10 mg/kg single ip, plasma Ru) was 10.00 ± 3.46 h. The Cminss ([1]; predicted, based on a dose of 10 mg/kg every 72 h) was 7170 ± 3910 ng/mL, the “Average weight: Average Kidney” value [2, 4] was 0.17 ± 0.06 g and the “Average weight: Body” value [2, 4] was 21.31 ± 5.1 g. For the same substance, the “Average weight: Heart” value [2, 4] was 0.11 ± 0.05 g, the “Average weight: Liver” value [2, 4] was 1.15 ± 0.37 g and the “Average weight: Spleen” value [2, 4] was 0.04 ± 0.017 g. For the same substance, the Body weight [2, 5] was 18.731 g, the Heart weight [2, 5] was 0.078 g and the “Left Kidney weight” value [2, 5] was 0.148 g. For the same substance, the Liver weight [2, 5] was 0.974 g, the “Right Kidney weight” value [2, 5] was 0.140 g and the Spleen weight [2, 5] was 0.035 g. The “Total body weight or organ weight, treated vs control mice” value ([2]; end of the trial) was “no notable difference”, the “Histological changes in liver, spleen, or kidney tissue” value ([3]; H&E, end of the 21 day efficacy trial) was “does not induce histological changes” and the “Histopathological finding: Adrenals” value ([3]; end of 21 day trial) was “N”. For the same substance, the “Histopathological finding: Bone marrow (femur, tibia, sternum, vertebrae)” value ([3]; end of 21 day trial) was “Moderate diffuse granulocytic hyperplasia; Moderate diffused Erythroid hypoplasia”, the “Histopathological finding: Bones (femur, tibia, sternum, vertebrae)” value ([3]; end of 21 day trial) was “N” and the “Histopathological finding: Bones (skull)” value ([3]; end of 21 day trial) was “N”. The “Histopathological finding: Brain” value ([3]; end of 21 day trial) was “N”, the “Histopathological finding: Cecum” value ([3]; end of 21 day trial) was “N” and the “Histopathological finding: Cervix” value ([3]; end of 21 day trial) was “N”. The “Histopathological finding: Colon” value ([3]; end of 21 day trial) was “N”, the “Histopathological finding: Duodenum, jejunum, ileum” value ([3]; end of 21 day trial) was “Mild peritonitis and serositis, neutrophilic and histiocytic, multifocal” and the “Histopathological finding: Ears” value ([3]; end of 21 day trial) was “N”. For the same substance, the “Histopathological finding: Esophagus” value ([3]; end of 21 day trial) was “N”, the “Histopathological finding: Eyes” value ([3]; end of 21 day trial) was “N” and the “Histopathological finding: Gallbladder” value ([3]; end of 21 day trial) was “N”. The “Histopathological finding: Harderian gland” value ([3]; end of 21 day trial) was “N”, the “Histopathological finding: Heart” value ([3]; end of 21 day trial) was “N” and the “Histopathological finding: Kidneys” value ([3]; end of 21 day trial) was “N”. The “Histopathological finding: Liver” value ([3]; end of 21 day trial) was “Minimal extramedullary hematopoiesis. Minimal hepatocyte hypertrophy. Mild vacuolar change (microvesicular)”, the “Histopathological finding: Lungs” value ([3]; end of 21 day trial) was “N” and the “Histopathological finding: Mammary glands” value ([3]; end of 21 day trial) was “N”. The “Histopathological finding: Mesenteric lymph node” value ([3]; end of 21 day trial) was “N”, the “Histopathological finding: Nasal cavity” value ([3]; end of 21 day trial) was “N” and the “Histopathological finding: Nerves (hind limb, spine)” value ([3]; end of 21 day trial) was “N”. The “Histopathological finding: Oral cavity” value ([3]; end of 21 day trial) was “N”, the “Histopathological finding: Ovaries” value ([3]; end of 21 day trial) was “N” and the “Histopathological finding: Oviducts” value ([3]; end of 21 day trial) was “N”. The “Histopathological finding: Pancreas” value ([3]; end of 21 day trial) was “Minimal peritonitis, neutrophilic and histiocytic, multifocal”, the “Histopathological finding: Parathyroid” value ([3]; end of 21 day trial) was “N” and the “Histopathological finding: Pituitary” value ([3]; end of 21 day trial) was “N”. The “Histopathological finding: Prostate” value ([3]; end of 21 day trial) was “N”, the “Histopathological finding: Salivary glands” value ([3]; end of 21 day trial) was “N” and the “Histopathological finding: Seminal vesicles” value ([3]; end of 21 day trial) was “N”. The “Histopathological finding: Skeletral muscles (hind limb, spine)” value ([3]; end of 21 day trial) was “N”, the “Histopathological finding: Spinal cord” value ([3]; end of 21 day trial) was “N” and the “Histopathological finding: Spleen” value ([3]; end of 21 day trial) was “Mild increase in extramedullary hematopoiesis with granulocyte hyperplasia”. For the same substance, the “Histopathological finding: Stifle joint” value ([3]; end of 21 day trial) was “N”, the “Histopathological finding: Stomach” value ([3]; end of 21 day trial) was “N” and the “Histopathological finding: Submandibular lymph node” value ([3]; end of 21 day trial) was “N”. The “Histopathological finding: Teeth” value ([3]; end of 21 day trial) was “N”, the “Histopathological finding: Testes/epididymis” value ([3]; end of 21 day trial) was “N” and the “Histopathological finding: Thymus” value ([3]; end of 21 day trial) was “N”. For the same substance, the “Histopathological finding: Thyroid” value ([3]; end of 21 day trial) was “N”, the “Histopathological finding: Trachea” value ([3]; end of 21 day trial) was “N” and the “Histopathological finding: Urinary bladder” value ([3]; end of 21 day trial) was “N”. The “Histopathological finding: Uterus” value ([3]; end of 21 day trial) was “N”, the “Histopathological finding: Vagina” value ([3]; end of 21 day trial) was “N” and the “Adverse effects / pathological complications on histological evaluation” value ([3]; forty‐seven organ and tissue types, after 21 days of treatment) was “no signs of pathological complications; also recorded: no significant adverse effects”.
